Measurements from patent US7666996B2, “Casein derived peptides and uses thereof” (priority 2000, dated 2010).

Assays:
Sup-T1 cells = experiment: Sup-T1 lymphocyte proliferation (cell counts); type: cell-based, human; conditions: data not shown
Description: [^3H]-thymidine incorporation test: In order to test the effect of peptides derived from natural casein on T cell proliferation, several concentrations of peptides derived from natural casein (10 mg/ml stock in RPMI) were added to Sup-T1 cell cultures in 96 flat bottom microwell plate (5000 cells/well), as described for HIV-1 infection in Sup-T1 cells. Cells were counted and their viability was determined by trypan blue dye exclusion. They were pulsed with [^3H]-thymidine at each time point (3, 7, 10 and 14 days) for 18 hours (over night) and harvested on glass fiber filters for radioactivity reading (Incorporation of [^3H]-thymidine into cellular DNA is proportional to degree of cell proliferation).

[1] = system: Non-Obese Diabetic (NOD) mice; experiment: Intraperitoneal Glucose Tolerance Test (IPGTT) in NOD mice; type: in vivo; conditions: healthy NOD mice after 25 weeks
Description: Intraperitoneal Glucose Tolerance Test (IPGTT): The glucose tolerance test is the definitive method for investigating glucose metabolism and diabetic tendencies in mammals. Twenty five (25) weeks after receiving Synthetic peptides derived from casein, response to a glucose load was assessed with an intraperitoneal glucose tolerance test. Glucose injection consisted of 1 g/kg body weight. Glycemic values were determined from blood drawn prior to test (0 minutes) and 60 minutes after loading.

[2] = system: Non-Obese Diabetic (NOD) mice; experiment: Glucosuria in Non-Obese Diabetic (NOD) mice; type: in vivo; conditions: for Healthy/Total (sugar not detected in urine): female NOD mice, 100 μg synthetic peptide once weekly for 5 weeks, evaluated after 25 weeks; for Urine Sugar: individual healthy NOD mice, after 25 weeks
Description: Juvenile (Type I, IDDM) diabetes in Non-Obese Diabetic (NOD) mice:
Peptides derived from natural casein: NOD mice are a commonly used model for research of autoimmune disease and human Juvenile Diabetes. Six week old female NOD mice received either one or two injections per week of 100 μg of peptides derived from natural casein, for a total of 5 or 10 treatments. Control mice received no treatment. The severity of disease was determined according to glucosuria, which was measured using Combi test sticks [Gross, D. J. et al (1994), Diabetology, 37:1195]. Results were expressed as the percent of glucosuria-free mice in each sample over a 365-day period.
Synthetic peptides derived from casein: In another experiment, 6 week old female NOD mice received one injection per week of 100 μg of Synthetic peptides derived from casein for a total of 5 treatments. Control mice received no treatment. Results were expressed as the number of healthy mice in the various treated groups.

human bone marrow cells = experiment: Colony assays in cultured human bone marrow cells (CFU-GM, MK, BFU-E, CFU-GEMM); type: cell-based; conditions: 100 μg/ml synthetic peptide in the presence of EPO
Description: Proliferation of megakaryocyte- and erythroid forming cells from human bone marrow and cord blood cells: A sample of bone marrow from an apparently healthy human being was processed by density gradient separation using Histopaque-107 (Sigma Diagnostics) to obtain a purified population of mononuclear cells (MNC). Colony assays were performed in a plating medium containing final concentrations of 0.92% methyl cellulose (4000 centripase powder, Sigma Diagnostic), rehydrated in Iscoves modified Dulbecco's medium containing 36 mM sodium bicarbonate (Gibco), 30% fetal bovine serum (FBS) (Hyclone), 0.292 mg/ml glutamine, 100 units per ml penicillin and 0.01 mg per ml streptomycin (Biological Industries, Beit Haemek). Cord blood from normal births was collected and prepared as mentioned above.
Colony assay medium containing 10^5 MNC per ml was plated in triplicate wells within a 24 well tissue culture plate (Greiner), 0.33 ml per well. The cultures were incubated at 37° C. in 5% CO2, 95% air and 55% relative humidity with or without peptides derived from natural casein or synthetic peptides derived from casein, at the indicated concentrations. Plates were scored after 14 days for colonies containing more than 50 cells. […]

[3] = system: human bone marrow progenitor cells; experiment: CFU-GM colony formation with IL-3 and G-CSF, human bone marrow; type: cell-based; conditions: 100 μg/ml, 14 days
Description: (§1) Cells were scored in the macroscopic colonies grown from human bone marrow cells prepared similarly to the CFU-GEMM colonies previously described. Cells were incubated with hematopoietic factors cytokine (IL-3) and colony stimulating factor (G-CSF), and 25 μg or more of synthetic peptides derived from casein: peptide J, representing amino acids 1-22 of α-S1 casein. Exposure of the human bone marrow progenitor cells to peptides derived from casein was for 14 days. Stimulation of colony formation (CFU) is expressed as the number of myeloid colonies in 10^5 plated MNCs.
A similar effect of synthetic peptides derived from αS1 casein was observed on the proliferation of granulocytes and macrophages from human bone marrow progenitor cells. […] (FIG. 20). Thus, synthetic peptides derived from αS1 casein or combinations thereof are effective in augmenting the effect of granulopoitic factors such as G-CSF on bone marrow hematpoietic progenitor cell differentiation and expansion.

[4] = system: irradiated, bone marrow transplanted mice; experiment: Leukocyte and platelet reconstitution in bone marrow transplant recipient mice; type: in vivo; conditions: for enhancement of platelet counts over control mice: 3×10^6 cells, 10 days post-transplantation
Description: Leukocyte and platelet reconstitution in bone marrow transplant recipient Mice: BALB/c mice were sub-lethally irradiated at a source to skin distance of 70 cm, dosage of 50 cGy per minute, for a total of 600 cGy. The irradiated mice were […] casein, synthetic peptides derived from casein (13-26 amino acids, see Table 3 above), or human serum albumin (controls), following a double-blinded protocol. Leukocyte reconstitution was determined according to cell count in peripheral blood collected at indicated intervals from 6 to 12 days post treatment. Platelet reconstitution was determined by cell count in blood collected from the retro orbital plexus, into EDTA-containing vials, at indicated intervals from day 6 to day 15 post treatment. […]
In a third series of experiments, the mice were irradiated (800 cGy), reconstituted and injected intraperitoneally with 1.0 mg synthetic peptides derived from casein (peptides 3a and 4P, representing the first 6 and 12 amino acids of the N terminus of αS1 casein, respectively—see Table 3 above) daily, on days 4, 5, 6 and 7 post-transplantation. Platelet reconstitution was assayed at 10 and 12 days post-transplantation.
In a fourth series of experiments, F1 mice were irradiated (750 cGy), reconstituted with syngeneic bone marrow, and injected intravenously 24 hours later with 1 mg per mouse of synthetic peptides derived from casein representing amino acids 1-22 of the N terminus of αS1 casein. In addition, 2 (two) groups of mice were treated each with a natural fraction of αS1 casein position 1-23, and a fraction of peptides derived from natural κ-casein, representing amino acid coordinates 106-169 of κ-casein (SEQ ID NO: 27). WBC counts were conducted on days 5, 7, 10 and 12 post-transplantation.

[5] = system: murine bone marrow progenitor cells; experiment: CFU-GM colony formation with IL-3 and G-CSF, murine bone marrow; type: cell-based
Description: as §1, with “murine” for “human”, “casein (J),” for “casein: peptide J,”, “casein, or 30-4, representing amino acids 1-6” for “casein. Exposure”, “α-S1 casein,” for “the human bone marrow progenitor cells to peptides derived from casein was”, “days, individually or in combination. The stimulation” for “days. Stimulation”
Synthetic peptides derived from αS1-casein stimulate Granulopoietic (GM) cell proliferation in CFU-GM: As mentioned hereinabove, formation and expansion of CFU-GM (Granulocyte and Macrophage) colonies, and CFU-GEMM (Granulocyte, Erythroid, Macrophage and Megakaryocyte) colonies constitute one of the early events in the differentiation of hematopoietic progenitor cells in the bone marrow.

[6] = system: murine bone marrow progenitor cells; experiment: CFU-GEMM colonies from murine bone marrow cells, differential counts; type: cell-based
Description: Proliferation of megakaryocytes in multipotential colonies (CFU-GEMM) from murine bone marrow cells: Primary bone marrow cells (1×10^5 per ml) from 8-12 week-old C3H/HeJ […], 95% air, at 37° C. The medium, appropriate for the growth of multipotential colonies (CFU-GEMM), contained 1% BSA (Sigma), 10^−4 M thioglycerol (Sigma), 2.8×10^−4 M human transferrin (TF, Biological industries, Israel), 10% WEHI-CM as a source of IL-3 and 2 units per ml erythropoietin (rhEPO, R & D Systems, Minneapolis). […] They were picked with a micropipette, cytocentrifuged and stained with May-Grunwald-Giemsa for differential counts. At least 700 cells were counted for each preparation.
Proliferation of Dendritic cells in CFU-GEMM: Multipotent (CFU-GEMM) colonies grown from primary bone marrow cells as described for the assay of megakaryocyte proliferation above were collected, stained and counted for dendritic cells. At least 700 cells were counted for each preparation.
Proliferation of Plasma cells in CFU-GEMM: Multipotent (CFU-GEMM) colonies grown from primary bone marrow cells as described for the assay of megakaryocyte proliferation above were collected, stained and counted for plasma cells. At least 700 cells were counted for each preparation.
Proliferation of Macrophage Cells in CFU-GEMM: Multipotent (CFU-GEMM) colonies grown from primary bone marrow cells as described for the assay of megakaryocyte proliferation above were collected, stained and counted for macrophage cells. At least 700 cells were counted for each preparation.
Proliferation of Red Blood Cells in CFU-GEMM: Multipotent (CFU-GEMM) colonies grown from primary bone marrow cells as described for the assay of megakaryocyte proliferation above were collected, stained and counted for red blood cells. At least 700 cells were counted for each preparation.
Proliferation of Polymorphonuclear Cells (PMN) in CFU-GEMM: Multipotent (CFU-GEMM) colonies grown from primary bone marrow cells as described for the assay of megakaryocyte proliferation above were collected, stained and counted for polymorphonuclear cells. […]

RPKHPIKHQ [X, synthetic peptide, N-terminal 9 amino acids of αS1 casein]
increase in lymphocyte cell number in infected cells (Sup-T1 cells; 250 μg per ml): 80%
increase in lymphocyte cell number in infected cells (Sup-T1 cells; 500 μg per ml): 33%
IPGT test outcome (in words) [1]: no evidence of abnormal glucose metabolism
prevention of glucosuria (in words) ([2]; 100 μg once weekly for 5 weeks, 25 weeks): highly effective
Healthy/Total (sugar not detected in urine) [2]: 3/5
Urine Sugar [2]: Negative

RPKHPIKHQGLPQEVLNE [F, synthetic peptide, N-terminal 18 amino acids of αS1 casein]
proliferation of erythroid cell precursors (BFU-E colonies) vs EPO alone (human bone marrow cells): one and one-half

RPKHPIKHQGLPQEVLNENLLR [J, synthetic peptide, amino acids 1-22 of α-S1 casein]
enhancement of granulopoietic stimulating effect of G-CSF (myelocyte formation) [3]: > 50%
peripheral white blood cell counts, day 10 ([4]; BALB/c, 600 cGy, 1 mg per mouse intraperitoneal, control 1.67): 2.74 ×10^6 cells per ml
peripheral white blood cell counts, day 12 ([4]; BALB/c, 600 cGy, 1 mg per mouse intraperitoneal, control 4.64): 5.20 ×10^6 cells per ml
white blood cell reconstitution (in words) ([4]; F1 mice, 750 cGy, 1 mg i.v., days 5 and 7 post-reconstitution): dramatic enhancement
enhancement of platelet counts over control mice ([4]; F1 mice, 750 cGy, 1 mg i.v.): > 25%
enhancement of platelet counts over control mice ([4]; F1 mice, 750 cGy, 1 mg i.v., listed as amino acids 1-22 of αS1-casein): 34%
myelocyte formation with G-CSF and IL-3 (in words) ([5]; 25 μg or more, 14 days): synergistic increase
increase in proliferation of granulocytes ([5]; in the presence of G-CSF): 25%
effect on Early (E.MK) megakaryocyte formation (in words) ([6]; 25 μg or more, 14 days): dramatic effect
increase in total megakaryocyte proliferation over controls ([6]; synthetic peptide, FIG. 21): 57%
Healthy/Total (sugar not detected in urine) [2]: 3/5
Urine Sugar [2]: Negative
